The source made the active and inactive calls. No cut-off for these calls is given here.
Experiments:
Type in all cases: cell-based
[1] = target: 5'-AMP-activated protein kinase catalytic subunit alpha-2 (Rattus norvegicus) (UniProt Q09137); experiment: Inhibition of AMPK in rat IAR-20 cells assessed as phosphorylated protein level at 10 uM after 30 mins by Western blot analysis
[2] = target: 5'-AMP-activated protein kinase catalytic subunit alpha-2 (Rattus norvegicus) (UniProt Q09137); experiment: Inhibition of AMPK in rat IAR-20 cells assessed as phosphorylated acetyl CoA carboxylase level at 10 uM after 30 mins by Western blot analysis
[3] = target: 5'-AMP-activated protein kinase catalytic subunit alpha-2 (Rattus norvegicus) (UniProt Q09137); experiment: Activation of AMPK in rat IAR-20 cells assessed as phosphorylated protein level at 10 uM after 30 mins by Western blot analysis
[4] = target: 5'-AMP-activated protein kinase catalytic subunit alpha-2 (Rattus norvegicus) (UniProt Q09137); experiment: Activation of AMPK in rat IAR-20 cells assessed as phosphorylated acetyl CoA carboxylase level at 10 uM after 30 mins by Western blot analysis

Chain of 5'-AMP-activated protein kinase catalytic subunit alpha-2 (Rattus norvegicus) (Q09137 whole entry): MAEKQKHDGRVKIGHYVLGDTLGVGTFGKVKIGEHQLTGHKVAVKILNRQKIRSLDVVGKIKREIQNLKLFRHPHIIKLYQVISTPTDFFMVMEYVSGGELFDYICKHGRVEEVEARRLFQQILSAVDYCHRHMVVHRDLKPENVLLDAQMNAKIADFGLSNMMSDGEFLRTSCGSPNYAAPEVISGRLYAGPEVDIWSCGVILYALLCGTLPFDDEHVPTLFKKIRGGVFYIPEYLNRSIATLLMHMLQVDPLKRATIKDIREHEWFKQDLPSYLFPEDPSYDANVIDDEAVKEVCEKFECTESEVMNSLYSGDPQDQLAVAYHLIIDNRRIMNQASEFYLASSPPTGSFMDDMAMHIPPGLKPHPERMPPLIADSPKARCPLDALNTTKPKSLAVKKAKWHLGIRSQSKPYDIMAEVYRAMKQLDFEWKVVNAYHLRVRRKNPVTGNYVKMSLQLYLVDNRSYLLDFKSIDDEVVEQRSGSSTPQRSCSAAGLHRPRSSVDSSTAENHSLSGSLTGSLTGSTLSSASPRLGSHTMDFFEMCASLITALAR

Row | SMILES | inhibition [1] | inhibition [2] | Activity [3] | Activity [4]
1 | COc1ccc(CC2COc3c(OC)c(O)cc(O)c3C2=O)c(O)c1 (centres undefined) | Active | Active |  | 
2 | COc1c(O)c(C)c(O)c2c1OC[C@@](O)(Cc1ccc(O)cc1)C2=O | Active | Active |  | 
3 | Cc1c(O)c(C)c2c(c1O)C(=O)[C@](O)(Cc1ccc(O)cc1)CO2 | Active | Active |  | 

Other lines, results leading:

Row | inhibition [1] | inhibition [2] | Activity [3] | Activity [4] | SMILES
4 |  |  | Active | Active | Cc1c(O)c(C)c2c(c1O)C(=O)[C@H](Cc1ccc(O)cc1)CO2
5 |  |  | Active | Active | Cc1c(O)cc2c(c1O)C(=O)[C@H](Cc1ccc(O)cc1)CO2
6 |  |  | Active | Active | COc1c(O)c(C)c(O)c2c1OC[C@@H](Cc1ccc(O)cc1)C2=O
7 |  |  | Active | Active | COc1cc(O)c(C)c(O)c1C(=O)CCc1ccc(O)cc1

From ChEMBL document CHEMBL2385060, “A dihydrochalcone and several homoisoflavonoids from Polygonatum odoratum are activators of adenosine monophosphate-activated protein kinase” (Bioorg Med Chem Lett, 2013)
